Assay results: ChEMBL document CHEMBL1125867 (J Med Chem, 1991)

Columns and labels:
Dihydrofolate reductase = biological target: T1, Dihydrofolate reductase (Homo sapiens, UniProt P00374)
T1 sequence (P00374 whole entry): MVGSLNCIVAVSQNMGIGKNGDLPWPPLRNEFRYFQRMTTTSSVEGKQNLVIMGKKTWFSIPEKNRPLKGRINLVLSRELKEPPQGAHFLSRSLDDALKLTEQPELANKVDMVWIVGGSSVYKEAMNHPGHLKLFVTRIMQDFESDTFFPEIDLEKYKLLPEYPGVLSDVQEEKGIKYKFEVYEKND
Description: Compound was evaluated for Dihydrofolate Reductase (DHFR) inhibition

[1] = Compound was evaluated for cell growth inhibition of human (WI-L2) leukemic cells.; assay type: functional, cell-based; conditions: WIL2

IC50 (Dihydrofolate reductase) | Compound | IC50 [1]
> 20 µM | Cc1nc(N)c2nc(CN(C)c3ccc(C(=O)NC(CCC(=O)O)C(=O)O)cc3)cnc2n1 (stereo not drawn) | 
6 µM | CN(Cc1cnc2ncnc(N)c2n1)c1ccc(C(=O)NC(CCC(=O)O)C(=O)O)cc1 (stereo not drawn) | 
 | Nc1nc(N)c2nc(CNc3ccc(C(=O)N[C@@H](CCC(=O)O)C(=O)O)cc3)cnc2n1 [AMINOPTERIN] | 0.007 µM
